Laboratory results: patent US20060058374A1, “Urotensin II receptor agents” (priority 2002, published 2006)

Tests used:
dogs = conditions: intravenal administration to dogs; cited from earlier work
rats [1] = conditions: oral administration to rats; cited from earlier work
rats [2] = conditions: oral administration to rats; cited from earlier work; remark: listed apart in the source

| Structure (SMILES) | melting point | also measured |
| --- | --- | --- |
| CC1c2ccccc2C(=O)OC1(CCN(C)C)c1ccc(Cl)cc1.Cl (centres unmarked) | > 250 °C (dec.) | – |
| COc1cccc(C2(CCN(C)C)Cc3ccccc3C(=O)O2)c1.Cl (centres unmarked) | > 250 °C (dec.) | – |
| Cl.O=C1OC(CCN2CCCC2)(c2ccc(Cl)cc2)Cc2ccccc21 (centres unmarked) | > 250 °C (dec.) | – |
| COc1ccc(C2(CCN(C)C)Cc3ccccc3C(=O)O2)cc1 (centres unmarked) [3-(2-dimethylamino-ethyl)-3,4-dihydro-3-(p-methoxy-phenyl)-isocoumarin] | – | anti-hypertensive activity (dogs): anti-hypertensive activity; diuretic action (rats [1]): diuretics |
| CCN(CC)CCC1(c2ccc(Cl)cc2)Cc2ccccc2C(=O)O1.Cl (centres unmarked) | > 250 °C (dec.) | – |
| Cl.O=C1OC(CCN2CCCCC2)(c2ccc(Cl)cc2)Cc2ccccc21 (centres unmarked) | > 250 °C (dec.) | – |
| COc1ccc(C2(CCN(C)C)Cc3ccccc3C(=O)O2)cc1.Cl (centres unmarked) | > 250 °C (dec.) | – |
| COc1cccc2c1CC(CCN(C)C)(c1ccccc1)OC2=O.Cl (centres unmarked) | > 250 °C (dec.) | – |
| Cc1cccc2c1C(=O)OC(CCN(C)C)(c1ccc(Cl)cc1)C2.Cl (centres unmarked) | > 250 °C (dec.) | – |
| CN(C)CCC1(c2ccccc2Cl)Cc2ccccc2C(=O)O1.Cl (centres unmarked) | > 250 °C (dec.) | – |
| CN1CCN(CCC2(c3ccc(Cl)cc3)Cc3ccccc3C(=O)O2)CC1.Cl (centres unmarked) | > 250 °C (dec.) | – |
| CN(C)CCC1(c2cccc(F)c2)Cc2ccccc2C(=O)O1.Cl (centres unmarked) | > 250 °C (dec.) | – |
| Cc1ccc2c(c1)C(=O)OC(CCN(C)C)(c1ccccc1)C2.Cl (centres unmarked) | > 250 °C (dec.) | – |
| CN(C)CCC1(c2ccccc2)Cc2ccccc2CO1 (centres unmarked) [3-(2-dimethylamino-ethyl)-3-(phenyl)-isochroman] | – | anti-hypertensive activity (dogs): anti-hypertensive activity |
| Cc1cccc2c1CC(CCN(C)C)(c1ccccc1)OC2=O.Cl (centres unmarked) | > 250 °C (dec.) | – |
| CN(C)CCCC1(c2ccc(Cl)cc2)Cc2ccccc2C(=O)O1.Cl (centres unmarked) | > 250 °C (dec.) | – |
| CN(C)CCC1(c2cccs2)Cc2ccccc2C(=O)O1.Cl (centres unmarked) | > 250 °C (dec.) | – |
| CC(CN(C)C)C1(c2ccccc2)Cc2ccccc2C(=O)O1 (centres unmarked) [3-(2-dimethylamino-(1-methyl-ethyl))-3,4-dihydro-3-phenyl-isocoumarin] | – | antihypertensive action (rats [2]): ineffective; diuretic action (rats [1]): diuretics |
| CN(C)CCC1(c2ccccc2)Cc2ccccc2C(=O)O1.Cl (centres unmarked) | > 250 °C (dec.) | – |
| COc1ccccc1C1(CCN(C)C)Cc2ccccc2C(=O)O1.Cl (centres unmarked) | > 250 °C (dec.) | – |
| CN(C)CCC1(c2ccc(Oc3ccccc3)cc2)Cc2ccccc2C(=O)O1.Cl (centres unmarked) | 245.2 to 246.3 °C (dec.) | – |
| CN(C)CCC1(c2cccc(Cl)c2)Cc2ccccc2C(=O)O1.Cl (centres unmarked) | > 250 °C (dec.) | – |
| CN(C)CCC1(c2ccccc2)Cc2ccccc2C(=O)O1 (centres unmarked) [3-(2-dimethylamino-ethyl)-3,4-dihydro-3-phenyl-isocoumarin] | – | anti-hypertensive activity (dogs): anti-hypertensive activity; diuretic action (rats [1]): diuretics |
